The numbers were not newly measured in PMC7544826 (Communications Biology, 2020), which cites them from elsewhere.

In general, IC50 refers to the concentration that gives 50% inhibition.

The test system of this data set is Notum. Also noted: method as in PMID 31876313. The settings on record: read-out: IC50, Notum inhibition (reported potency); cited from earlier work.

Each structure is given as a SMILES string.

In the case of `COc1ccc2[nH]cc(CCNC(C)=O)c2c1` [melatonin], the half-maximal inhibitory concentration (IC50) is 75 µM.
